Read-outs that look alike come from different tables or passages of the source.
How the values were obtained:
[1] = Hepatic microsomal stability, dog; format: in vitro ADME; conditions: for half-life at 1 μM: beagle, liver microsomes, pH 7.4
Method: These were diluted 500-fold into 1 mL of microsomal incubation mixture to yield a final concentration of 1 μM. The incubation mixture was composed of 100 mM phosphate buffer, pH 7.4, and NADPH regenerating system (BD Biosciences NADPH Regenerating System Solutions A & B). This mixture was preincubated at 37° C. for 5 min in an Eppendorf Thermo mixer, and the reaction initiated by addition of 0.5 mg (25 μl of a 20 mg/mL solution) of liver microsomes. Aliquots (100 μl) were withdrawn at 0, 5, 15, 30, and 60 min, and added to […] ACN containing internal standard. […] The percentage of solute remaining at the end of the incubation was used to determine species-specific values of scaled intrinsic clearance, hepatic clearance, and predicted hepatic extraction based upon the calculations below (Obach, 1999).
for which mg microsomal protein/gm liver was 45 for all species, and gm liver/kg body weight were 32 for dog, 88 for mouse, 40 for rat and 25 for human.
for which ER estimates the amount of compound cleared during a single pass through the liver (Low ER <0.3, moderate ER 0.3-0.7, high ER>0.7).

[2] = Single-dose pharmacokinetics in FVB mice (oral gavage, IV); conditions: for Brain exposure (AUClast) ranking: single oral dose, FVB mice
[3] = test system: PrP^Sc in dividing ScN2a-c13 cells; conditions: read-out: EC50 (ELISA), reduction of PrP^Sc load; dividing ScN2a-c13 cells
[4] = Multiple-dose (three-day) pharmacokinetic studies in FVB mice, drug in liquid diet; format: in vivo, mouse; conditions: 3 days in liquid diet; for concentration at 3 days: FVB, mouse, brain, oral, read-out: brain concentration
Method: Aminothiazole analog (e.g., 4.5 g of 27) was added to 15 mL of pure PEG400, vortexed and sonicated to ensure dissolution, then stored at −4° C. until needed. This highly concentrated PEG400 solution was subsequently diluted to final dosing concentrations, where the volume added was composed of homogenized solid rodent feed, cocoa (taste masking agent), and water. Wild-type FVB mice weigh ˜25 gm and typically drink 20 mL of liquid diet per day, allowing an estimate of daily drug consumption. A single dosing cohort consisted of three mice in a shared cage and liquid diet was provided at the start of the study in sufficient volume to last for the entire three-day trial (˜200 mL). At the end of the three-day dosing period, animals were euthanized by CO2, followed by collection of plasma (cardiac puncture) and removal of whole brain. Heparinized blood was centrifuged to separate plasma and both plasma and brain samples were stored at −80° C. prior to analysis. Plasma samples were prepared for analysis by precipitating proteins and reconstituting the remaining fraction with HPLC mobile phase. Brain samples were typically prepared by four-fold dilution with water after weighing, then homogenized using bead-beater or Polytron™ resulting in a highly concentrated solution that was further diluted with mobile phase as appropriate in preparation for bioanalytical analysis using LC-MS. Analysis was by LC-MS (Shimadzu dual-HPLC pumps, C18 analytical column, with detection using an Applied Biosystems API-4000 triple quadrupole mass spectrometer).
Ten compounds were selected from among the 34 2-AMTs for three-day multiple-dose PK studies at PO doses ranging from 40-210 mg/kg. Selection was based on diversity in potency, chemical structure, and a range of physicochemical properties. We used a liquid diet to facilitate easy drug administration, as well as serve as the daily source of all water and food. This approach was chosen because the mouse bioassay studies that would be used to assess drug effects on survival would be expected to run for 110 to 400 days, or more; gavage dosing for such a long period is not feasible and more stressful to mice. For the multiple-dose PK studies, 4.5 g of the 2-AMT analogs was added to 15 mL of pure PEG400, vortexed and sonicated to ensure dissolution, then stored at −4° C. until needed. This highly concentrated PEG400 solution was subsequently diluted to final dosing concentrations and added to the rodent liquid diet, cocoa (taste-masking agent), and water.
Wild-type FVB mice weigh ˜25 g and typically drink 20 mL of liquid diet per day, allowing an estimate of daily drug consumption. A single dosing cohort consisted of three mice in a shared cage and liquid diet was provided at the start of the study in sufficient volume (˜200 mL) to last for the entire three-day period. At the end of the dosing period, animals were euthanized by CO2, followed by collection of plasma (cardiac puncture) and removal of whole brain. Samples were processed and stored as described above for the 10 mg/kg single-dose studies.
Plasma and brain homogenate samples were extracted using a protein-precipitation method and analyzed by specific LC/MS/MS methods developed for each compound dosed in vivo. The analytical method accuracy and precision were monitored by analyzing quality control (QC) samples that were prepared by the same methods as the plasma or brain homogenate samples. The brain and plasma concentration data were used to calculate the maximal concentration (Cmax), area under the concentration-time curve (AUClast), and absolute bioavailability (% F) by noncompartmental analysis with sparse sampling performed using Phoenix WinNonlin 6.1 software (Pharsight, Mountain View, Calif.).

[5] = test system: PrP^Sc in dividing ScN2a-cl3 cells; format: cell-based, mouse
[6] = Multidose (three-day) pharmacokinetics in liquid diet in FVB mice; conditions: for concentration at 3 days: FVB, mouse, in vivo
[7] = […]
[8] = test system: ScN2a-c13 cells; test: cells; format: cell-based; conditions: Mus musculus; N=3; read-out: EC50 by calcein for cell viability
[9] = test system: P-gp (MDR1); test: in vitro; conditions: dog, MDCK-MDR1
[10] = in vitro; conditions: dog, MDCK-MDR1
[11] = female dog microsomes, read-out: t1/2 Dog Female
[12] = male dog microsomes, read-out: t1/2 Dog Male
[13] = IV 1 mg/kg, plasma, female FVB mice
[14] = PO 40 mg/kg, brain, female FVB mice
[15] = female, FVB, mouse, brain, po, 40 mg/kg
[16] = female, FVB, mouse, brain/plasma, po, 40 mg/kg
[17] = female, FVB, mouse, plasma, po, 40 mg/kg
[18] = female, FVB, mouse, plasma, po, 40 mg/kg, t1/2, PO 40 mg/kg, female FVB mice
[19] = female, FVB, mouse, brain and plasma, po, 10 mg/kg
[20] = female, FVB, mouse, plasma, iv, 1 mg/kg
[21] = female, FVB, mouse, plasma, iv, 1 mg/kg, t1/2, IV 1 mg/kg, female FVB mice
[22] = female, FVB, mouse, plasma, po, 10 mg/kg
[23] = Table 29, 2-AMT analogs tested for potency, usually n = 3 or more
[24] = 40 mg/kg, Brain Concentration (Css), three-day dosing in liquid diet, brain
[25] = 40 mg/kg, Plasma Concentration (Css), three-day dosing in liquid diet, plasma
[26] = 80 mg/kg, Brain Concentration (Css), three-day dosing in liquid diet, brain
[27] = 80 mg/kg, Plasma Concentration (Css), three-day dosing in liquid diet, plasma
[28] = 130 mg/kg, Brain Concentration (Css), three-day dosing in liquid diet, brain
[29] = 130 mg/kg, Plasma Concentration (Css), three-day dosing in liquid diet, plasma
[30] = 210 mg/kg, Brain Concentration (Css), three-day dosing in liquid diet, brain
[31] = 210 mg/kg, Plasma Concentration (Css), three-day dosing in liquid diet, plasma

Compound	half-life at 1 μM [1, 11] [min]	half-life at 1 μM [1, 12] [min]	AUClast [2, 14] [ng·h/g]	Cmax [2, 15] [ng/g]	Tmax [2, 15] [min]	Kp [2, 16]	AUC(0-t) [2, 17] [ng·h/mL]	Cmax [2, 17] [ng/mL]	Tmax [2, 17] [min]	half-life [2, 18] [min]	EC50 [3] [nM]	Kp [2, 19]	AUC(0-t) [2, 20] [ng·h/mL]	Cmax [2, 20] [ng/mL]	Tmax [2, 20] [min]	half-life [2, 21] [min]	bioavailability [2, 22] [%]	bioavailability [2, 17] [%]	Brain exposure (AUClast) ranking ([2]; brain)	EC50 ([5]; AMT analogs tested for potency) [nM]	further results
C(=N\Nc1ccc(-c2cnco2)cc1)/c1ccncc1 [IND54304, reference compound]	16	20	282 ± 27.2	123 ± 42.7	120	0.52	544 ± 16.8	220 ± 99.4	30	60	400										Hepatic Extraction Ratio Dog Female ([1]; female dog microsomes): 0.80; Hepatic Extraction Ratio Dog Male ([1]; male dog microsomes): 0.79; AUClast [2, 13]: 219 ± 33.0 ng·h/mL; Cmax [2, 13]: 466 ± 37.4 ng/mL; Tmax [2, 13]: 4.98 min; t1/2 [2, 13]: 12.6 min; % F ([2]; PO 40 mg/kg vs IV 1 mg/kg, plasma, female FVB mice): 24.8%; brain concentration as multiple of EC50 ([4]; 100 mg/kg/day): ~20 ×EC50; concentration at 3 days ([4]; 100 mg/kg/day): ~10 µM
Cc1cccc(Nc2nc(-c3ccc(-c4ccccc4)cc3)cs2)n1 [IND24, (4-Biphenyl-4-yl-thiazol-2-yl)-(6-methyl-pyridin-2-yl)-amine]	51		9998 ± 417	840 ± 252	240	2.61	3830 ± 450	569 ± 38.1	120	279	1270	2.6	953 ± 374	856 ± 908	4.98	129	40	40.2	highest AUC values in brain	1270	half-life at 1 μM ([1]; male dog microsomes, * extrapolated, read-out: t1/2 Dog Male (extrapolated)): 140 min; half-life ([2]; female, FVB, mouse, plasma, iv, 1 mg/kg, Half-life, 1 mg/kg IV, female FVB mice): 120 min; EC50 [5, 23]: 1270 nM; concentration at 3 days [6, 24]: 8.7 ± 1.46 µM; concentration at 3 days [6, 25]: 8.19 ± 8.09 µM; concentration at 3 days [6, 26]: 19.3 ± 2.28 µM; concentration at 3 days [6, 27]: 5.55 ± 1.18 µM; concentration at 3 days [6, 28]: 31.8 ± 5.46 µM; concentration at 3 days [6, 29]: 11.7 ± 4.85 µM; concentration at 3 days [6, 30]: 37.4 ± 9.06 µM; concentration at 3 days [6, 31]: 18.9 ± 20.5 µM; Brain concentrations ([6]; female FVB mice, 75 mg/kg, formulations containing 0.125-1.25% (v/v) PEG400): > 8 µM; metabolic stability (in words) [7]: stable; EC50 [8]: > 10000 nM
Cc1ccc(Nc2nc(-c3cc(-c4ccccc4)no3)cs2)nc1 [IND33, (5-Methyl-pyridin-2-yl)-[4-(3-phenyl-isoxazol-5-yl)-thiazol-2-yl]-amine]																				940	EC50 [5, 23]: 940 nM; concentration at 3 days [6, 24]: 0.88 ± 0.68 µM; concentration at 3 days [6, 25]: 0.65 ± 0.38 µM; concentration at 3 days [6, 26]: 5.39 ± 2.93 µM; concentration at 3 days [6, 27]: 2.85 ± 1.3 µM; concentration at 3 days [6, 28]: 30 µM; concentration at 3 days [6, 29]: 4.74 ± 1.31 µM; concentration at 3 days [6, 30]: 12.6 ± 8.62 µM; concentration at 3 days [6, 31]: 14.2 ± 2.09 µM; Brain Concentration (Css), 130 mg/kg ([6]; three-day dosing in liquid diet, 130 mg/kg, brain): 23.3 ± 13.2 µM; hepatic extraction ratio (ER) [7]: lower to moderate; efflux ratio [9]: 1.2; Papp A→B [10]: 6.8 ×10⁻⁶ cm/s; Papp B→A [10]: 8.3 ×10⁻⁶ cm/s; concentration at 3 days ([4]; 130 mg/kg dose): ~30 µM
Cc1ccnc(Nc2nc(-c3ccc(-c4ccccn4)s3)cs2)c1 [IND81, (4-Methyl-pyridin-2-yl)-[4-(5-pyridin-2-yl-thiophen-2-yl)-thiazol-2-yl]-amine]	26	23	1592 ± 794	568 ± 186	30	5.53	288 ± 136	152 ± 10.6	30	58.2		5.5	106 ± 12.4	183 ± 96.6	4.98	70.2	25 to 27	27.2	highest AUC values in brain		Papp A→B [10]: 16 ×10⁻⁶ cm/s; Papp B→A [10]: 20.9 ×10⁻⁶ cm/s; EC50 [8]: > 10000 nM

— US20140329863A1 (priority 2011, published 2014)
